What was measured:
[1] = molecular target: T1, GLS1 (purified recombinant human GAC) (Homo sapiens, UniProt O94925); test: GLS1 enzymatic activity assay (dual-coupled, Amplex UltraRed/resorufin); assay type: biochemical
T1 sequence (O94925 55-598 isoform O94925-3 limits assumed): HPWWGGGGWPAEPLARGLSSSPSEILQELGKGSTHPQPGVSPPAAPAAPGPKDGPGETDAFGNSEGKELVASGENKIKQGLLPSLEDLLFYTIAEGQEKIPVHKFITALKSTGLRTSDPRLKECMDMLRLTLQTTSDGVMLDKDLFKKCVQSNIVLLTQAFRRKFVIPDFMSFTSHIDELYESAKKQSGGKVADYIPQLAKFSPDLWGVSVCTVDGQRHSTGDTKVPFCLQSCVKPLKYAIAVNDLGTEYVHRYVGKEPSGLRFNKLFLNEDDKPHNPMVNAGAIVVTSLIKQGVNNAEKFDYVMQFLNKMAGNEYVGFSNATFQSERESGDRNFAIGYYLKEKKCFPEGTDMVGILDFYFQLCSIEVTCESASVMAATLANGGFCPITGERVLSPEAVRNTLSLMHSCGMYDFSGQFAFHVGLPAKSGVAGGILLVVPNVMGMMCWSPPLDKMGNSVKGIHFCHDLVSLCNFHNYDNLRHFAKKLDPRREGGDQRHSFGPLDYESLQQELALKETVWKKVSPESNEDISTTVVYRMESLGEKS
Procedure, shortened: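 GAC activity measured by coupling glutamate to glutamate oxidase and HRP, generating resorufin from Amplex UltraRed. Enzyme (2 nM) preincubated with 50 mM potassium phosphate 10 min at room temperature, then inhibitor 10 min; 1 mM glutamine substrate, 1% DMSO. Fluorescence 530/590 nm, kinetic or 20-min endpoint; IC50 from four-parameter logistic fit.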

A549 cells = test: A549 proliferation (viability) assay, Cell Titer Fluor, 72 hours; assay type: cell-based; conditions: Homo sapiens
Procedure, shortened: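 Fluorescence read-out (Cell Titer Fluor, 30 min at 37 °C after reagent) after 72 h compound exposure of A549 cells; EC50 by four-parameter logistic curve fit. Cells: 1000/well, RPMI 1640 + 10% dialyzed FBS, 0.5% DMSO final.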

Row | IC50 [1] [nM] | EC50 (A549 cells) [nM] | SMILES
1 | < 100 | < 100 | O=C(Cc1cccc(OC(F)(F)F)c1)Nc1nnc(CCCCn2ccc(NC(=O)CC3CCCC3)c(F)c2=O)s1 [Example 503, 2-cyclopentyl-N-{3-fluoro-2-oxo-1-[4-(5-{2-[3-(trifluoromethoxy)phenyl]acetamido}-1,3,4-thiadiazol-2-yl)butyl]-1,2-dihydropyridin-4-yl}acetamide]
2 | < 100 | 500 to 5000 | Cc1ccc(CC(=O)Nc2ccn(CCC(F)Cn3cc(C(=O)NCc4cccc(OC(F)(F)F)c4)nn3)c(=O)c2)cn1 (centres unmarked) [Example 248, 1-(2-fluoro-4-{4-[2-(6-methylpyridin-3-yl)acetamido]-2-oxo-1,2-dihydropyridin-1-yl}butyl)-N-{[3-(trifluoromethoxy)phenyl]methyl}-1H-1,2,3-triazole-4-carboxamide]
3 | < 100 | 100 to 500 | CS(=O)(=O)CCC(=O)Nc1ccn(CCCCc2ccc(NC(=O)Cc3cccc(OC(F)(F)F)c3)nn2)c(=O)n1 [Example 110, 3-methanesulfonyl-N-{2-oxo-1-[4-(6-{2-[3-(trifluoro-methoxy)phenyl]acetamido}pyridazin-3-yl)butyl]-1,2-dihydropyrimidin-4-yl}propanamide]
4 | < 100 | 500 to 5000 | O=C(Cc1ccccc1)Nc1ccn(CCCCc2nnc(NC(=O)Cc3cccnc3)s2)c(=O)n1 [Example 16, N-(2-oxo-1-(4-(5-(2-(pyridin-3-yl)acetamido)-1,3,4-thiadiazol-2-yl)butyl)-1,2-dihydropyrimidin-4-yl)-2-phenylacetamide]
5 | 100 to 500 | 500 to 5000 | COCCNC(=O)c1nnc(CCCCn2ccc(NC(=O)Cc3cccc(OC(F)(F)F)c3)cc2=O)s1 [Example 450, N-(2-methoxyethyl)-5-[4-(2-oxo-4-{2-[3-(trifluoro-methoxy)phenyl]acetamido}-1,2-dihydropyridin-1-yl)butyl]-1,3,4-thiadiazole-2-carboxamide]
6 | < 100 | 100 to 500 | O=C(Cc1cccc(OC(F)(F)F)c1)Nc1ccn(CCCCc2nnc(NC(=O)Cc3ccccc3)s2)c(=O)n1 [Example 19, N-(2-oxo-1-{4-[5-(2-phenylacetamido)-1,3,4-thiadiazol-2-yl]butyl}-1,2dihydropyrimidin-4-yl)-2-[3-(trifluoromethoxy)phenyl]acetamide]
7 | < 100 | < 100 | O=C(CC1CCCC1)Nc1ccn(CCCCn2cc(C(=O)NCc3cccc(C(F)(F)F)c3)nn2)c(=O)c1 [Example 153, 1-{4-[4-(2-cyclopentylacetamido)-2-oxo-1,2-dihydropyridin-1-yl]butyl}-N-{[3-(trifluoromethyl)phenyl]methyl}-1H-1,2,3-triazole-4-carboxamide]
8 | < 100 | < 100 | O=C(Cc1ccccc1)Nc1ccn(CC[C@H](F)Cn2cc(C(=O)NCc3cc(C(F)(F)F)ccn3)nn2)c(=O)c1F [Example 125, (S)-1-(2-fluoro-4-(3-fluoro-2-oxo-4-(2-phenylacetamido)pyridin-1(2H)-yl)butyl)-N-((4-(trifluoromethyl)pyridin-2-yl)methyl)-1H-1,2,3-triazole-4-carboxamide]
9 | < 100 | < 100 | CC(C)(C)CC(=O)Nc1ccn(CCC(F)Cn2cc(C(=O)NCc3cccc(OC(F)(F)F)c3)nn2)c(=O)c1F (centres unmarked) [Example 340, 1-{4-[4-(3,3-dimethylbutanamido)-3-fluoro-2-oxo-1,2-dihydropyridin-1-yl]-2-fluorobutyl}-N-{[3-(trifluoromethoxy)phenyl]methyl}-1H-1,2,3-triazole-4-carboxamide]
10 | < 100 | 100 to 500 | CC(C)(C)OC(=O)NCc1cccc(CC(=O)Nc2ccn(CCCCc3nnc(NC(=O)Cc4ccccc4)s3)c(=O)n2)c1 [Example 85, tert-butyl N-[(3-{[(2-oxo-1-{4-[5-(2-phenylacetamido)-1,3,4-thiadiazol-2-yl]butyl}-1,2-dihydropyrimidin-4-yl)carbamoyl]methyl}phenyl)methyl] carbamate]
11 | 500 to 5000 | > 5000 | Nc1ccn(CCCCn2cc(C(=O)NCc3cccc(OC(F)(F)F)c3)nn2)c(=O)c1 [Example 4, 1-(4-(4-Amino-2-oxopyridin-1(2H)-yl)butyl)-N-(3-(trifluoromethoxy)benzyl)-1H-1,2,3-triazole-4-carboxamide]
12 | < 100 | < 100 | O=C(CC1CCC(F)(F)CC1)Nc1ccn(CCCCn2cc(C(=O)NCc3cccc(OC(F)(F)F)c3)nn2)c(=O)c1 [Example 166, 1-(4-{4-[2-(4,4-difluorocyclohexyl)acetamido]-2-oxo-1,2-dihydropyridin-1-yl}butyl)-N-{[3-(trifluoromethoxy)phenyl]methyl}-1H-1,2,3-triazole-4-carboxamide]
13 | < 100 | < 100 | Cc1ccc(CNC(=O)c2cn(CC(F)CCn3ccc(NC(=O)CC4CCC4)c(F)c3=O)nn2)cn1 (centres unmarked) [Example 304, 1-(4-(4-(2-cyclobutylacetamido)-3-fluoro-2-oxopyridin-1(2H)-yl)-2-fluorobutyl)-N-((6-methylpyridin-3-yl)methyl)-1H-1,2,3-triazole-4-carboxamide]
14 | < 100 | < 100 | O=C(Nc1ccn(CCC(F)Cn2cc(C(=O)NCc3cccc(OC(F)(F)F)c3)nn2)c(=O)c1F)C(=O)c1ccccc1 (centres unmarked) [Example 315, 1-{2-fluoro-4-[3-fluoro-2-oxo-4-(2-oxo-2-phenylacetamido)-1,2-dihydropyridin-1-yl]butyl}-N-{[3-(trifluoromethoxy)phenyl]methyl}-1H-1,2,3-triazole-4-carboxamide]
15 | < 100 | 100 to 500 | O=C(CC1CCCCO1)Nc1ccn(CCC(F)Cn2cc(C(=O)NCc3cc(Cl)ccc3F)nn2)c(=O)c1 (centres unmarked) [Example 215, N-[(5-chloro-2-fluorophenyl)methyl]-1-(2-fluoro-4-{4-[2-(oxan-2-yl)acetamido]-2-oxo-1,2-dihydropyridin-1-yl}butyl)-1H-1,2,3-triazole-4-carboxamide]
16 | < 100 | 100 to 500 | CC(C)CC(=O)Nc1ccn(CCCCn2cc(C(=O)NCc3cccc(OC(F)(F)F)c3)nn2)c(=O)c1 [Example 5, 1-(4-(4-(3-methylbutanamido)-2-oxopyridin-1(2H)-yl)butyl)-N-(3-(trifluoromethoxy)benzyl)-1H-1,2,3-triazole-4-carboxamide]
17 | < 100 | < 100 | CC(C)COC(=O)Nc1ccn(CCCCc2ccc(NC(=O)Cc3cccc(OC(F)(F)F)c3)nn2)c(=O)n1 [Example 104, 2-methylpropyl N-{2-oxo-1-[4-(6-{2-[3-(trifluoro-methoxy)phenyl]acetamido}pyridazin-3-yl)butyl]-1,2-dihydropyrimidin-4-yl}carbamate]
18 | < 100 | < 100 | O=C(Nc1ccn(CCC(F)Cn2cc(C(=O)NCc3cncc(C(F)(F)F)c3)nn2)c(=O)c1F)OC1CCC1 (centres unmarked) [Example 398, cyclobutyl N-(3-fluoro-1-{3-fluoro-4-[4-({[5-(trifluoromethyl)pyridin-3-yl]methyl}carbamoyl)-1H-1,2,3-triazol-1-yl]butyl}-2-oxo-1,2-dihydropyridin-4-yl)carbamate]
19 | < 100 | < 100 | O=C(Cc1ccccc1)Nc1ccn(CCC(F)Cn2cc(C(=O)NCc3cc(Cl)ccc3F)nn2)c(=O)c1F (centres unmarked) [Example 392, N-[(5-chloro-2-fluorophenyl)methyl]-1-{2-fluoro-4-[3-fluoro-2-oxo-4-(2-phenylacetamido)-1,2-dihydropyridin-1-yl]butyl}-1H-1,2,3-triazole-4-carboxamide]

From US20160002204A1 (Board of Regents, The University of Texas System, priority 2014, published 2016)
